Tests used:
[1] = system: male stress-derived axillary odor; assay: Cross-adaptation of male stress-derived axillary odor (odor panel, magnitude estimation of perceived intensity); assay type: in vivo, human; settings: for Magnitude of Reduction of Intensity of Male Stress-Derived Odor (MSDO), Males: male stress-derived odor perceived by men; for Magnitude of Reduction of Intensity of Male Stress-Derived Odor (MSDO), Females: male stress-derived odor perceived by women
Description: (§1) The procedure relies upon an individual constantly sniffing an adapting agent, such as a fragrance, and occasionally a test odorant. Perceived intensity of the test odorant is obtained by using psychophysical, magnitude-estimation procedures. These perceived intensities are obtained every 30 seconds over the test period, and are then compared with baseline perceived intensities obtained before the individual began sniffing the adapting agent. Throughout the testing we observe adaptation to the adapting agent. Results during trials with an inserted test odorant, such as the axillary odor used here, are believed to be reasonably predictive. If the perceived intensity of the test odorant decreases during the test, then the adapting agent cross-adapts the test odorant and becomes a cross-adapting agent. If the cross-adapting agent is itself not offensive, then the cross-adapting agent becomes a candidate for use in formulations in consumer products to ameliorate malodors, such as axillary odor or fecal/urine odors, and odors related to the female menstrual cycle.
(§2) Collection of secretions: Apocrine secretions obtained under stressed conditions provided the axillary odor that was used as the test odorant to evaluate the effectiveness of various adapting agents. Secretions were obtained from males (ages 20 to 60 years) and females (ages 20 to 40 years) in good health. […] Volunteers prepared their axillae for collection of apocrine secretions by refraining from deodorant use for 3 days and shaving their axillae the morning of the collection day.
(§3) Volunteers were rested in a supine position. The axillary regions were washed with isopropanol-soaked pads and injected intradermally with 1:10,000 adrenalin (in physiologic saline). This injection stimulated the secretion of apocrine gland secretions, which were collected in 10 μl pipettes, passed into 0.25 ml Eppendorf tubes, and stored on ice (or frozen for longer storage). The amount of secretion collected varied greatly with the individual subject (≦10 μl). The apocrine secretions from each volunteer were combined by consecutively washing each Eppendorf tube with 2×300 μl of doubly distilled water. This aqueous-apocrine fluid was transferred to a 5 ml round-bottomed flask for hydrolysis. X-N. Zeng, J. J. Leyden, J. G. Brand, A. I. Spielman, K. J. McGinley, G. Preti, An Investigation of Human Apocrine Gland Secretion for Axillary Odor Precursors, 18 J. Chem. Ecol. 1039-1055 (1992); X-N. Zeng, J. J. Leyden, A. I. Spielman and G. Preti Analysis of the characteristic human female axillary odors: Qualitative comparison to males. 22 J. Chem. Ecol. 237-257 (1996).
(§4) Production of odor: To produce quantities of stress-derived axillary odor for testing purposes, we hydrolyzed the apocrine secretion. The aqueous solution was refluxed for 20 min with 0.5 ml, 5% aqueous sodium hydroxide under a stream of nitrogen. The mixture was allowed to cool to room temperature, and then it was cooled in ice prior to being acidified with 6 N HCl to pH 2. The resulting axillary odor developed in the reaction mixture upon acidification was used as the test odorant. The axillary odors generated by this in vitro technique are analogous to the malodors produced by stressed individuals.
Sixteen (16) individuals (8 of each gender) served on an odor panel. Subjects ranged in age from 22 to 55 years (mean 32.7±10.6 s.d.), were not pregnant (by verbal report), and were all non-smokers. All panel members were screened for adequate use of magnitude estimation (some people have difficulties maintaining a ratio scale, i.e., when an odorant is half as strong as the previous, these people fail to provide a number that is half the previous estimate) and further trained in its use during 2-3 training sessions. All 16 subjects were tested with samples of male malodor compared to each of the potential cross-adapting agents. […]

[2] = system: female stress-derived axillary odor; assay: Cross-adaptation of female stress-derived axillary odor (odor panel, magnitude estimation of perceived intensity); assay type: in vivo, human; settings: for Magnitude of Reduction of Intensity of Female Stress-Derived Odor (FSDO), Males: female stress-derived odor perceived by men; for Magnitude of Reduction of Intensity of Female Stress-Derived Odor (FSDO), Females: female stress-derived odor perceived by women
Description: as §1, §2, §3, §4
A separate panel of 24 subjects (12 males and 12 females) tested samples of female stress-derived axillary odor with potential cross-adapting agents, some of which were not included in Example 1 above. Some of the subjects assessing the effectiveness of cross-adaptation of male stress-derived axillary odor were also used in the experiment with female secretions. However, these two experiments were treated as independent events. All panel members were screened for adequate use of magnitude estimation and further trained in its use during two to three training sessions. […]
Also: key: best: Best = Superior Cross-Adaptation; good: Good = Adequate Cross-Adaptation; poor: Poor = Ineffective Cross-Adaptation.

Row | Structure (SMILES) | Magnitude of Reduction of Intensity of Male Stress-Derived Odor (MSDO), Males [1] | Magnitude of Reduction of Intensity of Male Stress-Derived Odor (MSDO), Females [1] | Magnitude of Reduction of Intensity of Female Stress-Derived Odor (FSDO), Males [2] | Magnitude of Reduction of Intensity of Female Stress-Derived Odor (FSDO), Females [2]
1 | O=C1CCCCCCCC=CCCCCCCO1 [Ambrettolide, oxacycloheptadec-10-en-2-one] | poor | poor | poor | good
2 | CCCCCCCC1CCC(=O)O1 (stereo not drawn) [C14 Aldehyde, gamma-undecalactone] | good | poor | good | good
3 | CO[C@]1(C)CC[C@@]23C[C@@H]1C(C)(C)[C@@H]2CC[C@H]3C [CEDRAMBER ®, cedryl methyl ether] | good | poor | good | good
4 | CC(C)=CCC(C)(C)C(=O)C(C)C [CLARITONE ®, 2,4,4,7-tetramethyl-oct-6-en-3-one] | best | best | best | good
5 | CC/C=C\CCO [Cis-3-Hexenol, cis-3-hexenol-1-ol] | good | good | best | good
6 | CC(C)=CCCC(C)CCO (stereo not drawn) [Citronellol 950, 3,7-dimethyl-6-octen-1-ol] | good | good | good | good
7 | C=CC(C)CCCC(C)(C)O (stereo not drawn) [Dihydromyrcenol, 2,6-dimethyl-7-octen-2-ol] | best | good | best | good
8 | C=CCCC(=O)C1=CCCC(C)(C)C1 [Dynascone 10, 1-(5,5-dimethyl-1-cyclohexen-1-yl)4-penten-1-one] | best | poor | good | good
9 | C=CCc1ccc(O)c(OC)c1 [Eugenol, 2-methoxy-1-hydroxy-4-allylbenzene] | best | poor | good | good
10 | CC(C)=CCCC(C)CCCC(C)C=O (stereo not drawn) [FARENAL ®, 2,6,10-trimethyl-9-undecenal] | poor | poor | good | poor
11 | CC1CC(C)(c2ccccc2)OC(C)O1 (stereo not drawn) [Floropal, 2,4,6-trimethyl-4-phenyl-1,3-dioxane] | good | poor | best | best
12 | CCCCCC1C(=O)CCC1CC(=O)OC (stereo not drawn) [HEDIONE ®, methyl dihydro jasmonate] | poor | poor | poor | poor
13 | CCCCCCOC(=O)c1ccccc1O [Hexyl Salicylate, hexyl-2-hydroxybenzoate] | poor | poor | poor | good
14 | CCCCCCC(C=O)=Cc1ccccc1 [Hexylcinnamic Aldehyde, alpha-hexylcinnamaldehyde] | good | good | good | poor
15 | CC(=O)C1(C)CC2=C(CCCC2(C)C)CC1C (stereo not drawn) [ISO E SUPER ®, octahydro-2,3,8,8-tetramethyl-2-acetonaphthone] | poor | poor | poor | poor
16 | C=CCOC(=O)COC1CCCCC1 [Isoananat, allyl cyclohexyloxyacetate] | best | poor | good | poor
17 | CC(=O)O[C@@H]1C[C@H](C)CC[C@H]1C(C)C [Menthyl Acetate rf, 4-menthyl-3-yl acetate] | best | poor | good | good
18 | CC(=O)OC1CCC(C(C)(C)C)CC1 (stereo not drawn) [Oryclone Special, 4-tertbutylcyclohexyl acetate] | good | poor | best | poor
